The values below come from patent US5637582A, “Peripheral circulation improving agent” (priority 1992, dated 1997).

The subject of data set [1] is femoral artery. Kind of data set: Increase in femoral arterial blood flow in anesthetized dogs, cumulative i.v. dosing (Experimental Example 1). The following applies: 60 min after administration. The class given is in vivo, dog. Here is the method: Adult dogs (one group consisting of a dog) were intravenously given the test compound under anesthesia and artificial respiration successively at intervals of 60 minutes so that the dose can be 10, 30, 100 and 300 μg/kg body weight, and the blood flow of femoral artery was measured with a time course. […] An increase in the femoral arterial blood flow was calculated by subtracting the blood flow before the administration of the first dose of test compound as the standard value (the base line) from that 60 minutes after each administration.

The subject of a further data set is vertebral artery. Kind of data set: Change of vertebral arterial blood flow in anesthetized dogs (Experimental Example 4). The following applies: 100 μg/kg i.v.
Data set [2] concerns femoral artery. The data set is described as follows: Maximum increase in femoral arterial blood flow in anesthetized dogs, cumulative i.v. dosing (Experimental Example 3). The conditions noted are these: maximum during 60 min. Format: in vivo, dog. The method, then: Adult dogs (one group consisting of 5 dogs) were intravenously given the test compound under anesthesia and artificial respiration successively at intervals of 60 minutes so that the dose can be 10, 30, 100, 300 and 1000 μg/kg body weight, and the blood flow of femoral artery was measured with a time course. […] An increase in the femoral arterial blood flow was calculated by subtracting the blood flow before the administration of the first dose of test compound as the standard value (the base line) from that of maximum during an interval of 60 minutes after each administration.

Another data set deals with arterial blood pressure. Kind of data set: Change of arterial blood pressure in anesthetized dogs (Experimental Example 4). The conditions noted are these: 100 μg/kg i.v.
The test system of data set [3] is femoral artery. The data set is described as follows: Change of femoral arterial blood flow in anesthetized dogs (Experimental Example 4). Format: in vivo, dog. The following applies: 100 μg/kg i.v.; for AUC60 of the femoral arterial blood flow: 60 minutes after administration; for Increase in femoral arterial blood flow: 10 minutes after the administration.
Procedure: (§1) Each test compound was intravenously administered to adult dogs (one group consisting of 2 or 4 dogs) under anesthesia and artificial respiration at a dose of 100 μg/kg body weight. Femoral arterial blood flow, vertebral arterial blood flow and arterial blood pressure were measured 1, 3, 5, 10, 20 and 30 minutes after the administration. The femoral arterial blood flow and vertebral arterial blood flow were measured with an electromagnetic blood flowmeter (manufactured by Nihon Koden, MFV-2100, trade name) through a flow probe attached to the femoral artery or vertebral artery. The arterial blood pressure was measured with a pressure transducer (manufactured by Millar, MICRO-TIP, Model SPC-350) through a catheter attached to the brachial artery.
(§2) Changes of the femoral arterial blood flow, vertebral arterial blood flow and arterial blood pressure were estimated by comparing the values measured before and after the administration of the test compound.
The next data set deals with hind leg edema. The data set is described as follows: Hind leg frostbite model: model of Raynaud's disease (Experimental Example 7). The class given is in vivo, male SD rat. The following applies: for % Inhibition of edema / Edema: 30 mg/kg, orally twice a day for 6 days; for edema inhibition activity: rat hind leg frostbite model, in words. The method, then: (Hind leg frostbite model: Model of Raynaud's disease)
Left hind leg of male SD rat (one group: 3 to 5 rats) was dipped in dry ice-ethanol for 2 seconds, and after 30 minutes, 30 mg/kg of a test compound dissolved in pure water was administered to the rat and then orally administered twice a day for 6 days continuously. At the final day of the experiment, volumes of both hind legs (below ankle joint) of the rat were measured by a water substitution method and an edema ratio was calculated from the following equation. Also, an inhibition ratio of the test compound administered group was obtained by comparing the edema ratio of the group in which the test compound was not administered. [formula]
The present model is disclosed, for example, in Hayashi et al, "Pharmacological Studies on Niceritrol (10), The Effects on Experimental Models of Peripherally Circulatory Insufficiency", Applied Pharmacology, 24 (6): 859-864 (1982), noting particularly the section "2. Effect on an experimental frostbite model" on page 860.

[4] abbreviates: G and H: one minute after, in words.

SMILES strings stand for the structures. Counter-ions that a name gives are not always drawn.

Procedure for arterial blood pressure: as §1, §2
Procedure for vertebral artery: as §1, §2

Regarding `CNCCN1C(=O)[C@@H](O)[C@@H](c2ccc(C)cc2)Sc2cc(C)ccc21` [D], the “Increase in femoral arterial blood flow” value in the data set with femoral artery [1] (100 μg/kg i.v.) came to 11 mL/min; with femoral artery [1] (300 μg/kg i.v.), 35 mL/min.

For the molecule `COc1ccc([C@H]2Sc3ccccc3N(CCN(C)C)C(=O)[C@H]2OC(C)=O)cc1` [F], the “Vertebral Arterial Blood Flow change (side effects)” value is reported as -0.5 Δ ml/min with vertebral artery (1 min); -1.0 Δ ml/min with vertebral artery (3 min); -1.0 Δ ml/min in the data set on vertebral artery (5 min); 0.0 Δ ml/min in the data set on vertebral artery (10 min); 0.0 Δ ml/min with vertebral artery (20 min); 0.5 Δ ml/min in the data set on vertebral artery (30 min). For the same molecule, the “Increase in femoral arterial blood flow” value was 10.7 mL/min in the data set on femoral artery [2] (10 μg/kg i.v.); 21.0 mL/min in the data set on femoral artery [2] (30 μg/kg i.v.); 27.3 mL/min in the data set with femoral artery [2] (100 μg/kg i.v.); 37.0 mL/min in the data set with femoral artery [2] (300 μg/kg i.v.); 11 mL/min with femoral artery [1] (10 μg/kg i.v.); 21 mL/min in the data set on femoral artery [1] (30 μg/kg i.v.). The figures for the “Increase in femoral arterial blood flow” value with femoral artery [1] (100 μg/kg i.v.) and in the data set with femoral artery [1] (300 μg/kg i.v.) were 27 mL/min and 37 mL/min, respectively. Moreover, the “Arterial Blood Pressure change (side effects)” value (shortened to “Arterial Blood Pressure change”) with arterial blood pressure (1 min) is on record as -1.5 ΔmmHg; in the data set with arterial blood pressure (3 min), -0.5 ΔmmHg; in the data set with arterial blood pressure (5 min), 1.0 ΔmmHg; in the data set with arterial blood pressure (10 min), 1.5 ΔmmHg; with arterial blood pressure (20 min), 1.5 ΔmmHg; with arterial blood pressure (30 min) it was 2.5 ΔmmHg. For the same molecule, the “Femoral Arterial Blood Flow change” value with femoral artery [3] (3 min) is on record as 36.0 Δ ml/min; in the data set with femoral artery [3] (5 min) it was 48.0 Δ ml/min; in the data set with femoral artery [3] (10 min) it was 63.5 Δ ml/min; in the data set with femoral artery [3] (20 min), 64.5 Δ ml/min; with femoral artery [3] (30 min), 54.5 Δ ml/min. In the data set on femoral artery [3], the “AUC60 of the femoral arterial blood flow” value was determined as 2977.0 mL. In addition, the “femoral arterial blood flow increasing activity” value in the data set on femoral artery [3] (even after 30 minutes, in words) is “excellent femoral arterial blood flow increasing activity”.

As to `COc1ccc([C@@H]2Sc3ccccc3N(CCN(C)C)C(=O)[C@@H]2OC(C)=O)cc1` [H, reference compound], the “Vertebral Arterial Blood Flow change (side effects)” value in the data set with vertebral artery (1 min) is 25.5 Δ ml/min; with vertebral artery (3 min), 18.0 Δ ml/min; with vertebral artery (5 min), 13.5 Δ ml/min; with vertebral artery (10 min), 7.5 Δ ml/min; with vertebral artery (20 min) it was 4.5 Δ ml/min; with vertebral artery (30 min) it was 2.0 Δ ml/min. The “Arterial Blood Pressure change” value is on record as -11.5 ΔmmHg in the data set on arterial blood pressure (1 min); -4.5 ΔmmHg with arterial blood pressure (3 min); -2.0 ΔmmHg with arterial blood pressure (5 min); -1.0 ΔmmHg in the data set with arterial blood pressure (10 min); 0.0 ΔmmHg in the data set with arterial blood pressure (20 min); 1.0 ΔmmHg with arterial blood pressure (30 min). In addition, the “Femoral Arterial Blood Flow change” value was 38.5 Δ ml/min with femoral artery [3] (1 min); 34.5 Δ ml/min in the data set on femoral artery [3] (3 min); 22.5 Δ ml/min in the data set on femoral artery [3] (5 min); 8.0 Δ ml/min in the data set with femoral artery [3] (10 min); 1.0 Δ ml/min in the data set with femoral artery [3] (20 min); -1.5 Δ ml/min in the data set on femoral artery [3] (30 min). The “Increase in femoral arterial blood flow” value in the data set with femoral artery [3] (in words) is on record as “substantially disappeared”. For the same molecule, the “AUC60 of the femoral arterial blood flow” value in the data set with femoral artery [3] amounted to 300.5 mL.

Regarding `Cc1ccc([C@H]2Sc3cc(C)ccc3N(CCN(C)C)C(=O)[C@H]2O)cc1` [B], the “Increase in femoral arterial blood flow” value in the data set on femoral artery [2] (10 μg/kg i.v.) was determined as 10.4 mL/min; in the data set with femoral artery [2] (30 μg/kg i.v.), 16.4 mL/min; with femoral artery [2] (100 μg/kg i.v.) it was 41.4 mL/min; in the data set with femoral artery [2] (300 μg/kg i.v.), 70.2 mL/min; in the data set on femoral artery [2] (1000 μg/kg i.v.), 79.2 mL/min; in the data set with femoral artery [1] (10 μg/kg i.v.) it was 22 mL/min. Besides, the “Increase in femoral arterial blood flow” value worked out at 28 mL/min in the data set on femoral artery [1] (30 μg/kg i.v.), 48 mL/min with femoral artery [1] (100 μg/kg i.v.) and 74 mL/min in the data set on femoral artery [1] (300 μg/kg i.v.).

In the case of `CC(=O)Oc1ccccc1C(=O)O` [Compound L, acetyl salicylic acid], in the data set with hind leg edema, the “% Inhibition of edema” value is given as -25%, the Edema came out at 55 ± 8% and the edema inhibition activity entry was “did not show any edema inhibition activity”.

On to `CC(=O)O[C@H]1C(=O)N(CCN(C)C)c2ccc(C)cc2S[C@H]1c1ccc(C)cc1` [G, reference compound], for which the “Vertebral Arterial Blood Flow change (side effects)” value with vertebral artery (1 min) is 26.5 Δ ml/min; in the data set with vertebral artery (3 min), 18.0 Δ ml/min; in the data set with vertebral artery (5 min), 11.5 Δ ml/min; with vertebral artery (10 min) it was 7.0 Δ ml/min; with vertebral artery (20 min), 3.5 Δ ml/min; in the data set with vertebral artery (30 min), 2.5 Δ ml/min. For the same molecule, the “effect on vertebral arterial blood flow” value with vertebral artery (setting [4]) is “remarkable changes”. For the same molecule, the “Arterial Blood Pressure change” value in the data set with arterial blood pressure (1 min) is -11.0 ΔmmHg; in the data set with arterial blood pressure (3 min), -2.5 ΔmmHg; in the data set on arterial blood pressure (5 min), 1.5 ΔmmHg; in the data set with arterial blood pressure (10 min), 1.0 ΔmmHg; in the data set on arterial blood pressure (20 min), 1.0 ΔmmHg; in the data set on arterial blood pressure (30 min) it was 1.5 ΔmmHg. The “effect on arterial blood pressure” value in the data set on arterial blood pressure (setting [4]) is given as “remarkable changes”. In addition, the “Femoral Arterial Blood Flow change” value is 30.0 Δ ml/min in the data set on femoral artery [3] (1 min); 24.0 Δ ml/min in the data set with femoral artery [3] (3 min); 16.0 Δ ml/min in the data set with femoral artery [3] (5 min); 9.5 Δ ml/min in the data set with femoral artery [3] (10 min); 7.5 Δ ml/min in the data set with femoral artery [3] (20 min); 5.0 Δ ml/min in the data set on femoral artery [3] (30 min). For the same molecule, in the data set on femoral artery [3] (in words), the “Increase in femoral arterial blood flow” value is recorded as “substantially disappeared”. The “AUC60 of the femoral arterial blood flow” value in the data set with femoral artery [3] was found to be 475.3 mL.

For `CNCCN1C(=O)[C@@H](OC(C)=O)[C@@H](c2ccc(C)cc2)Sc2cc(C)ccc21` [C], the “Increase in femoral arterial blood flow” value with femoral artery [2] (30 μg/kg i.v.) worked out at 6.8 mL/min; in the data set on femoral artery [2] (100 μg/kg i.v.) it was 25.6 mL/min; with femoral artery [2] (300 μg/kg i.v.), 44.6 mL/min; in the data set on femoral artery [2] (1000 μg/kg i.v.) it was 49.0 mL/min; with femoral artery [1] (10 μg/kg i.v.), 6 mL/min; with femoral artery [1] (30 μg/kg i.v.), 19 mL/min. Moreover, the results for the “Increase in femoral arterial blood flow” value in the data set with femoral artery [1] (100 μg/kg i.v.) and in the data set with femoral artery [1] (300 μg/kg i.v.) were 50 mL/min and 65 mL/min, respectively.

As for `Clc1ccccc1CN1CCc2sccc2C1` [Compound K, ticlopidine], in the data set on hind leg edema, the “% Inhibition of edema” value was -9%, the Edema is listed as 48 ± 2% and the edema inhibition activity result is “did not show any edema inhibition activity”.

Take `CC(=O)O[C@@H]1C(=O)N(CCN(C)C)c2ccc(CO)cc2S[C@@H]1c1ccc(C)cc1` [Compound E, (-)-cis-2-(4-methylphenyl)-3-acetoxy-5-[2-(dimethylamino)ethyl]-8-hydroxymethyl-2,3-dihydro-1,5-benzothiazepin-4(5H)-one oxalate]: the “Increase in femoral arterial blood flow” value worked out at 15.6 mL/min with femoral artery [2] (30 μg/kg i.v.); 55.6 mL/min in the data set with femoral artery [2] (100 μg/kg i.v.); 69.2 mL/min with femoral artery [2] (300 μg/kg i.v.); 68.6 mL/min in the data set with femoral artery [2] (1000 μg/kg i.v.); 15 mL/min in the data set on femoral artery [1] (30 μg/kg i.v.); 37 mL/min with femoral artery [1] (100 μg/kg i.v.). In the data set with femoral artery [1] (300 μg/kg i.v.), the “Increase in femoral arterial blood flow” value was found to be 36 mL/min.
